Test results as given in patent publication US8916573B2, “Quinazoline-2,4-dione derivatives” (Actelion Pharmaceuticals Ltd., priority 2011, dated 2014).
≈ marks a conversion by molar mass, not a printed value.

System: S. aureus 29213
Assay: Bacterial growth minimal inhibitory concentrations (microdilution, cation-adjusted Mueller-Hinton Broth, CLSI M7-A7)
Type: cell-based
Details: microdilution in cation-adjusted Mueller-Hinton Broth; for MIC: Staphylococcus aureus, 29213
Procedure: Bacterial Growth Minimal Inhibitory Concentrations: Minimal inhibitory concentrations (MICs; mg/l) were determined in cation-adjusted MuellerHinton Broth by a microdilution method following the description given in “Methods for Dilution Antimicrobial Susceptibility Tests for Bacteria that Grow Aerobically”, Approved standard, 7th ed., Clinical and Laboratory Standards Institute (CLSI) Document M7-A7, Wayne, Pa., USA, 2006. Typical antibacterial test results are given in Table 1 hereafter (MIC in mg/l).

Row | Compound | MIC [µg/mL] | MIC for S. aureus 29213 [µg/mL]
1 | O=C1CSc2ccc(N3C[C@@H](CCCn4c(=O)[nH]c5ccc(Cl)cc5c4=O)OC3=O)cc2N1 [Example 25, 6-chloro-3-{3-[(R)-2-oxo-3-(3-oxo-3,4-dihydro-2H-benzo[1,4]-thiazin-6-yl)-oxazolidin-5-yl]-propyl}-1H-quinazoline-2,4-dione] | 0.063 (≈ 0.129 µM) | 
2 | Cn1c(=O)n(CCC[C@H]2CN(c3ccc4c(n3)NC(=O)CS4)C(=O)O2)c(=O)c2ccccc21 [Example 2, 1-methyl-3-{3-[(S)-2-oxo-3-(3-oxo-3,4-dihydro-2H-pyrido[3,2-b][1,4]thiazin-6-yl)-oxazolidin-5-yl]-propyl}-1H-quinazoline-2,4-dione] | ≤ 0.016 | 
3 | Cc1cccc2c1c(=O)n(CCNC[C@H]1CN(c3ccc4c(n3)NC(=O)CS4)C(=O)O1)c(=O)n2C [Example 58, 1,5-dimethyl-3-(2-{[(S)-2-oxo-3-(3-oxo-3,4-dihydro-2H-pyrido[3,2-b][1,4]thiazin-6-yl)-oxazolidin-5-ylmethyl]-amino}-ethyl)-1H-quinazoline-2,4-dione] | ≤ 0.016 | 
4 | Cc1cccc2c1c(=O)n(CCNC[C@@H]1CN(c3ccc4c(c3)NC(=O)CS4)C(=O)O1)c(=O)n2C [Example 57, 1,5-dimethyl-3-(2-{[(R)-2-oxo-3-(3-oxo-3,4-dihydro-2H-benzo[1,4]thiazin-6-yl)-oxazolidin-5-ylmethyl]-amino}-ethyl)-1H-quinazoline-2,4-dione] | ≤ 0.016 | 
5 | O=C1CSc2ccc(N3C[C@@H](CNCCn4c(=O)c5cccc6c5n(c4=O)CCC6)OC3=O)cc2N1 [Example 66, 2-(2-{[(R)-2-oxo-3-(3-oxo-3,4-dihydro-2H-benzo[1,4]thiazin-6-yl)-oxazolidin-5-ylmethyl]-amino}-ethyl)-6,7-dihydro-5H-pyrido[3,2,1-#]quinazoline-1,3-dione] |  | 0.031
6 | O=C1CSc2ccc(N3C[C@@H](CNCCn4c(=O)[nH]c5ccccc5c4=O)OC3=O)nc2N1 [Example 53, 3-(2-{[(R)-2-oxo-3-(3-oxo-3,4-dihydro-2H-pyrido[3,2-b][1,4]thiazin-6-yl)-oxazolidin-5-ylmethyl]-amino}-ethyl)-1H-quinazoline-2,4-dione] | 0.5 (≈ 1.07 µM) | 
7 | Cn1c(=O)n(CCNC[C@@H]2CN(c3ccc4c(c3)NC(=O)CS4)C(=O)O2)c(=O)c2cccc(Cl)c21 [Example 61, 8-chloro-1-methyl-3-(2-{[(R)-2-oxo-3-(3-oxo-3,4-dihydro-2H-benzo[1,4]thiazin-6-yl)-oxazolidin-5-ylmethyl]-amino}-ethyl)-1H-quinazoline-2,4-dione] | ≤ 0.016 | 
8 | O=C1CSc2ccc(N3C[C@H](CCCn4c(=O)[nH]c5c(Cl)ccc(Cl)c5c4=O)OC3=O)cc2N1 [Example 40, 5,8-dichloro-3-{3-[(S)-2-oxo-3-(3-oxo-3,4-dihydro-2H-benzo[1,4]thiazin-6-yl)-oxazolidin-5-yl]-propyl}-1H-quinazoline-2,4-dione] | ≤ 0.016 | 
9 | O=C1CSc2ccc(N3C[C@@H](CCCn4c(=O)[nH]c5c(F)cccc5c4=O)OC3=O)cc2N1 [Example 32, 8-fluoro-3-{3-[(R)-2-oxo-3-(3-oxo-3,4-dihydro-2H-benzo[1,4]thiazin-6-yl)-oxazolidin-5-yl]-propyl}-1H-quinazoline-2,4-dione] | 0.031 (≈ 0.0659 µM) | 
10 | O=C1CSc2ccc(N3C[C@@H](CCCn4c(=O)[nH]c5cccc(Cl)c5c4=O)OC3=O)cc2N1 [Example 16, 5-chloro-3-{3-[(R)-2-oxo-3-(3-oxo-3,4-dihydro-2H-benzo[1,4]thiazin-6-yl)-oxazolidin-5-yl]-propyl}-1H-quinazoline-2,4-dione] | 0.031 (≈ 0.0637 µM) | 
11 | Cn1c(=O)n(CCC[C@H]2CN(c3ccc4c(c3)NC(=O)CS4)C(=O)O2)c(=O)c2ccccc21 [Example 3, 1-methyl-3-{3-[(S)-2-oxo-3-(3-oxo-3,4-dihydro-2H-benzo[1,4]-thiazin-6-yl)-oxazolidin-5-yl]-propyl}-1H-quinazoline-2,4-dione] | ≤ 0.016 | 
12 | Cc1cccc2[nH]c(=O)n(CCC[C@H]3CN(c4ccc5c(c4)NC(=O)CS5)C(=O)O3)c(=O)c12 [Example 7, 5-methyl-3-{3-[(S)-2-oxo-3-(3-oxo-3,4-dihydro-2H-benzo[1,4]-thiazin-6-yl)-oxazolidin-5-yl]-propyl}-1H-quinazoline-2,4-dione] | ≤ 0.016 | 
13 | Cn1c(=O)n(CCC[C@@H]2CN(c3ccc4c(c3)NC(=O)CS4)C(=O)O2)c(=O)c2ccc(Br)cc21 [Example 46, 7-bromo-1-methyl-3-{3-[(R)-2-oxo-3-(3-oxo-3,4-dihydro-2H-benzo[1,4]thiazin-6-yl)-oxazolidin-5-yl]-propyl}-1H-quinazoline-2,4-dione] | ≤ 0.016 | 
14 | COC(=O)/C=C/c1ccc2c(=O)n(CCNCCC3CN(c4ccc5c(c4)NC(=O)CS5)C(=O)O3)c(=O)n(C)c2c1 (racemic) [Example 63, rac-(E)-3-[1-methyl-2,4-dioxo-3-(2-{2-[2-oxo-3-(3-oxo-3,4-dihydro-2H-benzo[1,4]thiazin-6-yl)-oxazolidin-5-yl]-ethylamino}-ethyl)-1,2,3,4-tetrahydro-quinazolin-7-yl]-acrylic acid methyl ester] | 0.031 (≈ 0.0535 µM) | 
15 | Cn1c(=O)n(CCNC[C@@H]2CN(c3ccc4c(c3)NC(=O)CS4)C(=O)O2)c(=O)c2ccccc21 [Example 56, 1-methyl-3-(2-{[(R)-2-oxo-3-(3-oxo-3,4-dihydro-2H-benzo[1,4]thiazin-6-yl)-oxazolidin-5-ylmethyl]-amino}-ethyl)-1H-quinazoline-2,4-dione] | 0.125 (≈ 0.26 µM) | 
16 | Cc1cccc2c1c(=O)n(CCC[C@H]1CN(c3ccc4c(c3)NC(=O)CS4)C(=O)O1)c(=O)n2C [Example 6, 1,5-dimethyl-3-{3-[(S)-2-oxo-3-(3-oxo-3,4-dihydro-2H-benzo[1,4]-thiazin-6-yl)-oxazolidin-5-yl]-propyl}-1H-quinazoline-2,4-dione] | 0.031 (≈ 0.0645 µM) | 
17 | Cc1cccc2[nH]c(=O)n(CCC[C@@H]3CN(c4ccc5c(c4)NC(=O)CS5)C(=O)O3)c(=O)c12 [Example 5, 5-methyl-3-{3-[(R)-2-oxo-3-(3-oxo-3,4-dihydro-2H-benzo[1,4]-thiazin-6-yl)-oxazolidin-5-yl]-propyl}-1H-quinazoline-2,4-dione] | ≤ 0.016 | 

Further lines, results first:

Row | MIC [µg/mL] | MIC for S. aureus 29213 [µg/mL] | Compound
18 | 0.031 (≈ 0.0619 µM) |  | Cn1c(=O)n(CCNC[C@H]2CN(c3ccc4c(n3)NC(=O)CO4)C(=O)O2)c(=O)c2cccc(Cl)c21 [Example 69, 8-chloro-1-methyl-3-(2-{[(S)-2-oxo-3-(3-oxo-3,4-dihydro-2H-pyrido[3,2-b][1,4]oxazin-6-yl)-oxazolidin-5-ylmethyl]-amino}-ethyl)-1H-quinazoline-2,4-dione]
19 | 1 (≈ 2.14 µM) |  | O=C1CSc2ccc(N3C[C@@H](CNCCn4c(=O)[nH]c5ccccc5c4=O)OC3=O)cc2N1 [Example 54, 3-(2-{[(R)-2-oxo-3-(3-oxo-3,4-dihydro-2H-benzo[1,4]thiazin-6-yl)-oxazolidin-5-ylmethyl]-amino}-ethyl)-1H-quinazoline-2,4-dione]
20 | 0.125 (≈ 0.259 µM) |  | COc1ccc2c(=O)n(CCC[C@H]3CN(c4ccc5c(c4)NC(=O)CS5)C(=O)O3)c(=O)[nH]c2c1 [Example 35, 7-methoxy-3-{3-[(S)-2-oxo-3-(3-oxo-3,4-dihydro-2H-benzo[1,4]-thiazin-6-yl)-oxazolidin-5-yl]-propyl}-1H-quinazoline-2,4-dione]
21 | 0.25 (≈ 0.488 µM) |  | COc1cc2[nH]c(=O)n(CCC[C@@H]3CN(c4ccc5c(c4)NC(=O)CS5)C(=O)O3)c(=O)c2cc1OC [Example 39, 6,7-dimethoxy-3-{3-[(R)-2-oxo-3-(3-oxo-3,4-dihydro-2H-benzo[1,4]thiazin-6-yl)-oxazolidin-5-yl]-propyl}-1H-quinazoline-2,4-dione]
22 | 0.063 (≈ 0.14 µM) |  | Cc1cccc2c(=O)n(CCC[C@@H]3CN(c4ccc5c(n4)NC(=O)CO5)C(=O)O3)c(=O)[nH]c12 [Example 15, 8-methyl-3-{3-[(R)-2-oxo-3-(3-oxo-3,4-dihydro-2H-pyrido[3,2-b][1,4]oxazin-6-yl)-oxazolidin-5-yl]-propyl}-1H-quinazoline-2,4-dione]
23 | ≤ 0.016 |  | O=C1CSc2ccc(N3C[C@H](CCCn4c(=O)[nH]c5cccc(Cl)c5c4=O)OC3=O)nc2N1 [Example 19, 5-chloro-3-{3-[(S)-2-oxo-3-(3-oxo-3,4-dihydro-2H-pyrido[3,2-b][1,4]thiazin-6-yl)-oxazolidin-5-yl]-propyl}-1H-quinazoline-2,4-dione]
24 | ≤ 0.016 |  | O=C1COc2ccc(N3C[C@H](CCCn4c(=O)[nH]c5c(Cl)cccc5c4=O)OC3=O)nc2N1 [Example 24, 8-chloro-3-{3-[(S)-2-oxo-3-(3-oxo-3,4-dihydro-2H-pyrido[3,2-b][1,4]oxazin-6-yl)-oxazolidin-5-yl]-propyl}-1H-quinazoline-2,4-dione]
25 | ≤ 0.016 |  | Cn1c(=O)n(CCCC[C@@H]2CN(c3ccc4c(n3)NC(=O)CS4)C(=O)O2)c(=O)c2ccccc21 [Example 51, 1-methyl-3-{4-[(R)-2-oxo-3-(3-oxo-3,4-dihydro-2H-pyrido[3,2-b][1,4]thiazin-6-yl)-oxazolidin-5-yl]-butyl}-1H-quinazoline-2,4-dione]
26 | 0.031 (≈ 0.0659 µM) |  | O=C1CSc2ccc(N3C[C@@H](CCCn4c(=O)[nH]c5ccc(F)cc5c4=O)OC3=O)cc2N1 [Example 26, 6-fluoro-3-{3-[(R)-2-oxo-3-(3-oxo-3,4-dihydro-2H-benzo[1,4]thiazin-6-yl)-oxazolidin-5-yl]-propyl}-1H-quinazoline-2,4-dione]
27 | 0.031 |  | Cn1c(=O)n(CCNC[C@@H]2CN(c3ccc4c(n3)NC(=O)CS4)C(=O)O2)c(=O)c2ccccc21.O=CO [Example 55, 1-methyl-3-(2-{[(R)-2-oxo-3-(3-oxo-3,4-dihydro-2H-pyrido[3,2-b][1,4]thiazin-6-yl)-oxazolidin-5-ylmethyl]-amino}-ethyl)-1H-quinazoline-2,4-dione formate salt]
28 | 0.125 (≈ 0.221 µM) |  | COC(=O)/C=C/c1ccc2c(=O)n(CCNC[C@H]3CN(c4ccc5c(c4)NC(=O)CS5)C(=O)O3)c(=O)n(C)c2c1 [Example 65, (E)-3-[1-methyl-2,4-dioxo-3-(2-{[(S)-2-oxo-3-(3-oxo-3,4-dihydro-2H-benzo[1,4]thiazin-6-yl)-oxazolidin-5-ylmethyl]-amino}-ethyl)-1,2,3,4-tetrahydro-quinazolin-7-yl]-acrylic acid methyl ester]
